Measured values published in article PMC5653977 (EMBO Molecular Medicine, 2017).
Structures can show the parent of a compound that is named as a salt.

These molecules were tested on NRG1-ERBB4 signaling (assay: Nrg1-ERBB4-PIK3R1 split TEV co-culture compound screen of the NIH Clinical Collection). Details: not given.
Format: cell-based, human
Description: For our HTS‐compatible split TEV assay approach, human full‐length ERBB4‐Cyt1 was fused to the NTEV fragment, a TEV protease cleavage site (tevS) and the artificial co‐transcriptional activator Gal4‐VP16 (ERBB4‐NTEV‐tevS‐GV); human PIK3R1 was fused to the CTEV fragment (PIK3R1‐CTEV) (Fig 1A). Upon ERBB4 activation, PIK3R1 is recruited to the receptor resulting in a reconstituted protease activity that cleaves off GV. In turn, released GV translocates to the nucleus and binds to upstream activating sequences (UAS) to activate the transcription of a firefly luciferase reporter gene (Fig 1A). A constitutively expressed Renilla luciferase driven under the control of the human thymidine kinase (TK) promoter was used as control to address off‐target effects related to toxicity.
For small molecule screening, the NIH‐NCC Clinical Collection library (sets NCC‐003 and NCC‐201) was used containing 727 small molecules that are FDA‐approved and have a history in clinical applications (www.nihclinicalcollection.com). A Hamilton Labstar robot connected to 37 and 4°C incubators for cell incubation and compound storage and application (Cytomat automated incubator, ThermoScientific) and to a luciferase reader (Berthold Technologies) was used to automatically perform the screening. […] Each batch was screened three times.
For one 96‐well plate, 4 × 10^6 PC12 cells were harvested and diluted in 5 ml assay medium (phenol red‐free DMEM (low glucose, Life Technologies), 10% FCS, 5% HS, no antibiotics). The split TEV assay plasmids (2 μg pcDNA3_ERBB4‐NTEV‐tevS‐GV‐2xHA, 2 μg pTag4C_PIK3R1‐CTEV‐2xHA, 2 μg p5xUAS_firefly luciferase, 2 μg pTK_Renilla luciferase, and 0.5 μg pECFP‐C1 for examining transfection efficiency) were diluted in 2.5 ml Opti‐MEM (Life Technologies) and vortexed. In parallel, 20 μl of the transfection reagent Lipofectamine 2000 was diluted in 2.5 ml Opti‐MEM and vortexed.
For plating of one 96‐well plate, 10 ml suspension, containing the 4 × 10^6 in solution‐transfected cells, was placed in the bubble paddle reservoir of the Hamilton Cellstar robot. 100 μl was seeded per 96‐well using the 96‐tip pipetting head. The homogeneity of the cell suspension was guaranteed over time by mild stirring using the paddling device inside the reservoir. For five plates each, 50 ml of additional cell suspension was used to allow for losses of inaccessible volume.
The cells were allowed to express the plasmids for 24 h before compounds were added. Proper expression and transfection efficiency were verified by ECFP expression on a clear control plate. The compounds were applied in a final concentration of 10 μM using DMSO as diluent. […] Thirty minutes later, 10,000 Nrg1‐expressing PC12 cells in 100 μl assay medium were seeded on top. 24 h after addition of the compounds, the cells were lysed using 40 μl Passive Lysis buffer (Promega) and subjected to a Dual Luciferase Assay (Promega) according to the manufacturer's instructions. The data were analyzed in R Bioconductor using the package cellHTS2 (http://www.bioconductor.org/packages/devel/bioc/html/cellHTS2.html), assessed using the z‐score, and visualized using the program Mondrian (http://stats.math.uni-augsburg.de/mondrian/).
`CNCC[C@H](Oc1cccc2ccccc12)c1cccs1` [DULOXETINE HCl] gave a Z-SCORE of -0.22.

Same assay, conditions: NIH Clinical Collection NCC-003 raw data; compounds ranked by Z-score; 'flagged' given instead of a Z-score
`C=CC[C@@H]1/C=C(\C)C[C@H](C)C[C@H](OC)[C@H]2O[C@@](O)(C(=O)C(=O)N3CCCC[C@H]3C(=O)O[C@H](/C(C)=C/[C@@H]3CC[C@@H](O)[C@H](OC)C3)[C@H](C)[C@@H](O)CC1=O)[C@H](C)C[C@@H]2OC` [TACROLIMUS] gave a Z-SCORE of -1.97.
Molecule `C[C@]12CCC(=O)C=C1CC[C@@H]1[C@@H]2CC[C@@]2(C)[C@H]1CC[C@]2(O)C(=O)CO` [ReichsteinÂ’s substanceÂ S] has a Z-SCORE of -1.82.
With `CC(C)C[C@H](NC(=O)[C@@H](COC(C)(C)C)NC(=O)[C@H](Cc1ccc(O)cc1)NC(=O)[C@H](CO)NC(=O)[C@H](Cc1c[nH]c2ccccc12)NC(=O)[C@H](Cc1cnc[nH]1)NC(=O)[C@@H]1CCC(=O)N1)C(=O)N[C@@H](CCCNC(=N)N)C(=O)N1CCC[C@H]1C(=O)NNC(N)=O` [GOSERELIN ACETATE] the Z-SCORE was -1.23.
`Nc1nc(Cl)nc2c1ncn2[C@H]1C[C@H](O)[C@@H](CO)O1` [2-Chloro-2'-deoxyadenosine, reference compound] was tested, and the Z-SCORE was -3.5.
`[H]/N=C(/NCCCCC)N/N=C/c1c[nH]c2ccc(OC)cc12` [TEGASEROD MALEATE] was tested, and the Z-SCORE was “flagged”.
`CC(=O)O[C@]1(C(C)=O)CC[C@H]2[C@@H]3C=C(C)C4=CC(=O)CC[C@]4(C)[C@H]3CC[C@@]21C` [MEGESTROL ACETATE] was tested, and the Z-SCORE was -1.44.

Same assay, conditions: compound screen of the NIH Clinical Collection, sheet raw data NCC-003; compounds ranked by Z-score
In the case of `CC(C)[C@H](N)C(=O)OCCOCn1cnc2c(=O)[nH]c(N)nc21` [VALACICLOVIR HYDROCHLORIDE], the Z-SCORE is reported as 0.49.
In the case of `Cl.OC1CCCCC1N1CCC(c2ccccc2)CC1` (racemic) [(±)-Vesamicol hydrochloride], the Z-SCORE is reported as -0.04.
With `CN(C)CCCC1(c2ccc(F)cc2)OCc2cc(C#N)ccc21` (centres unmarked) [Citalopram hydrobromide] the Z-SCORE was -0.45.
Molecule `CO[C@H]1/C=C/O[C@@]2(C)Oc3c(C)c(O)c4c(O)c(c(/C=N/N5CCN(C6CCCC6)CC5)c(O)c4c3C2=O)NC(=O)/C(C)=C\C=C\[C@H](C)[C@H](O)[C@@H](C)[C@@H](O)[C@@H](C)[C@H](OC(C)=O)[C@@H]1C` [RIFAPENTINE, reference compound] has a Z-SCORE of 0.75.
`CNC(=C[N+](=O)[O-])NCCSCc1csc(CN(C)C)n1` [NIZATIDINE] gave a Z-SCORE of -0.53.
Benzeneacetic acid was tested, and the Z-SCORE was -0.01.
With `CC1(C)O[C@@H]2[C@@H](CO[C@@]3(COS(N)(=O)=O)OC(C)(C)O[C@@H]23)O1` [TOPIRAMATE] the Z-SCORE was 0.63.
Molecule `N[C@@H]1CON=C1O` [D-CYCLOSERINE, reference compound] has a Z-SCORE of 2.86.
`CCc1oc2ccccc2c1C(=O)c1cc(Br)c(O)c(Br)c1` gave a Z-SCORE of 0.47.
`Cc1ncc([N+](=O)[O-])n1CC(C)O` (centres unmarked) gave a Z-SCORE of 1.35.
In the case of `Cc1[nH]cnc1CN1CCc2c(c3ccccc3n2C)C1=O` [ALOSETRON HCl], the Z-SCORE is reported as 0.99.
`COCCCOc1ccnc(C[S+]([O-])c2nc3ccccc3[nH]2)c1C` (centres unmarked) [RABEPRAZOLE] was tested, and the Z-SCORE was -0.02.
`COc1cc(OC)c(C(=O)CCCN2CCCC2)c(OC)c1.Cl` [Buflomedil HCl] was tested, and the Z-SCORE was 0.75.
`CC=CC(=O)N(CC)c1ccccc1C` [483-63-6] showed a Z-SCORE of -0.8.
Molecule `CCN(CC)CC(=O)Nc1c(C)cccc1C` [LIDOCAINE] has a Z-SCORE of 1.02.
`C[C@@H](O)[C@H]1C(=O)N2C(C(=O)O)=C(S[C@@H]3CN[C@H](C(=O)N(C)C)C3)[C@H](C)[C@H]12` [MEROPENEM] was tested, and the Z-SCORE was -0.25.
`CN(C)CCc1c[nH]c2ccc(C[C@H]3COC(=O)N3)cc12` [Zolmitriptan] was tested, and the Z-SCORE was 0.57.
Molecule `Cc1c(O)c(=O)ccn1C` has a Z-SCORE of 0.19.
`COc1ccc(-c2oc3c(CC=C(C)C)c(O[C@@H]4O[C@H](CO)[C@@H](O)[C@H](O)[C@H]4O)cc(O)c3c(=O)c2O[C@@H]2O[C@@H](C)[C@H](O)[C@@H](O)[C@H]2O)cc1` [ICARIIN] was tested, and the Z-SCORE was -0.37.
In the case of `CC[C@]1(O)CC[C@H]2[C@@H]3CCC4=CCCC[C@@H]4[C@H]3CC[C@@]21C` [Ethylestrenol], the Z-SCORE is reported as -0.98.
In the case of `C=C1/C(=C\C=C2/CCC[C@]3(C)[C@@H]([C@H](C)/C=C/[C@@H](O)C4CC4)CC[C@@H]23)C[C@@H](O)C[C@@H]1O` [CALCIPOTRIOL], the Z-SCORE is reported as -0.04.
With `COc1ccccc1N1CCN(CC(O)COc2cccc3ccccc23)CC1` (centres unmarked) [NAFTOPIDIL] the Z-SCORE was 0.24.
`CN1C2CCCC1CC(NC(=O)c1nn(C)c3ccccc13)C2` (centres unmarked) [GRANISETRON HCl] was tested, and the Z-SCORE was 0.21.
`CC[C@H]1OC(=O)[C@H](C)[C@@H](O[C@H]2C[C@@](C)(OC)[C@@H](O)[C@H](C)O2)[C@H](C)[C@@H](O[C@@H]2O[C@H](C)C[C@H](N(C)C)[C@H]2O)[C@](C)(OC)C[C@@H](C)C(=O)[C@H](C)[C@@H](O)[C@]1(C)O` [CLARITHROMYCIN] gave a Z-SCORE of 0.55.
For `CCCc1nc(C(C)(C)O)c(C(=O)OCc2oc(=O)oc2C)n1Cc1ccc(-c2ccccc2-c2nnn[nH]2)cc1` [OLMESARTAN MEDOXOMIL], the Z-SCORE was 0.84.
`C[C@]12CCC(=O)C=C1CC[C@@H]1[C@@H]2CC[C@@]2(C)[C@H]1CC[C@]2(C)O` [Methyltestosterone] showed a Z-SCORE of -0.41.
`Oc1ccc(/C=C/c2cc(O)cc(O)c2)cc1` [Resveratrol] showed a Z-SCORE of 2.61.
For `O=C(CCNNC(=O)c1ccncc1)NCc1ccccc1` [NIALAMIDE], the Z-SCORE was 1.7.
Work on `Cc1ncc([N+](=O)[O-])n1CC(O)CCl` (centres unmarked) [ORNIDAZOLE] yielded a Z-SCORE of 2.22.

Same assay, conditions: compounds at 10 μM, 24 h; PC12 split TEV assay cells co-cultured with Nrg1-expressing PC12 cells; analysed with cellHTS2
Work on `C[N+]1(C)CCCC(OC(=O)C(O)(c2ccccc2)c2ccccc2)C1` (centres unmarked) [MEPENZOLATE BROMIDE, reference compound] yielded a Z-SCORE of -0.58.
`CC1(C)S[C@@H]2[C@H](NC(=O)[C@H](N)c3ccccc3)C(=O)N2[C@H]1C(=O)O` [Ampicillin Sodium, reference compound] showed a Z-SCORE of -1.31.
Work on `Cc1onc(-c2ccccc2)c1C(=O)N[C@@H]1C(=O)N2[C@@H]1SC(C)(C)[C@@H]2C(=O)[O-].O.[Na+]` [Micropenin, reference compound] yielded a Z-SCORE of 0.25.
`CCOC(=O)[C@H](CCc1ccccc1)N[C@@H](C)C(=O)N1CCC[C@H]1C(=O)O` [ENALAPRIL MALEATE, reference compound] gave a Z-SCORE of 0.
Molecule `CC(C)N(CCC(C(N)=O)(c1ccccc1)c1ccccn1)C(C)C` (centres unmarked) [Norpace, reference compound] has a Z-SCORE of 0.73.
In the case of `C[C@@H]1C[C@H]2[C@@H]3CCC4=CC(=O)C=C[C@]4(C)[C@@]3(F)[C@@H](O)C[C@]2(C)[C@@]1(O)C(=O)CO` [Dexamethasone, reference compound], the Z-SCORE is reported as 0.88.
Molecule `CO[C@H]1/C=C/O[C@@]2(C)Oc3c(C)c(O)c4c(O)c(c(/C=N/N5CCN(C6CCCC6)CC5)c(O)c4c3C2=O)NC(=O)/C(C)=C\C=C\[C@H](C)[C@H](O)[C@@H](C)[C@@H](O)[C@@H](C)[C@H](OC(C)=O)[C@@H]1C` [RIFAPENTINE, reference compound] has a Z-SCORE of 0.91.
`CC(C)[N+](C)(CCOC(=O)C1c2ccccc2Oc2ccccc21)C(C)C` [Pro-Banthine, reference compound] showed a Z-SCORE of -0.77.
Work on `CCCOc1ccc(C(=O)OCCN(CC)CC)cc1N` [Proparacaine hydrochloride, reference compound] yielded a Z-SCORE of 0.5.
`N[C@@H]1CON=C1O` [D-CYCLOSERINE, reference compound] was tested, and the Z-SCORE was -0.66.
`Nc1nc(Cl)nc2c1ncn2[C@H]1C[C@H](O)[C@@H](CO)O1` [2-Chloro-2'-deoxyadenosine, reference compound] showed a Z-SCORE of -3.5.
`C[n+]1ccccc1/C=N/O.[Cl-]` [PYRIDINE-2-ALDOXIME METHOCHLORIDE, reference compound] gave a Z-SCORE of 2.7.
`Brc1c(NC2=NCCN2)ccc2nccnc12` [Brimonidine, reference compound] showed a Z-SCORE of 0.01.
Molecule `O=C1CCC(N2C(=O)c3ccccc3C2=O)C(=O)N1` (centres unmarked) [Thalidomide, reference compound] has a Z-SCORE of -0.61.
`CCCCC(=O)O[C@H]1CC[C@H]2[C@@H]3CCc4cc(O)ccc4[C@H]3CC[C@]12C` [17-BETA-ESTRADIOL 17-VALERATE, reference compound] gave a Z-SCORE of -0.44.
In the case of `CC(C)C(=O)Nc1ccc([N+](=O)[O-])c(C(F)(F)F)c1` [FLUTAMIDE, reference compound], the Z-SCORE is reported as 0.85.
`COc1ccc(OC)c(C(O)CNC(=O)CN)c1` (centres unmarked) [Pro-Amatine, reference compound] gave a Z-SCORE of 0.01.
With `OCCN1CCN(CCCN2c3ccccc3Sc3ccc(Cl)cc32)CC1` [PERPHENAZINE, reference compound] the Z-SCORE was 0.23.
“S(-)-Timolol maleate [reference compound]” gave a Z-SCORE of -0.49.
Molecule `CCOC(=O)C1=C(C)NC(C)=C(C(=O)OC)C1c1cccc(Cl)c1Cl` (centres unmarked) [Felodipine, reference compound] has a Z-SCORE of -1.97.
